{
  "source": "ChEMBL document CHEMBL1926534",
  "about": "“Efficient synthesis of a novel m-phenylene derivative as a selective EP4 agonist inducing follicular growth and maturation in the ovary” (Bioorg Med Chem Lett, 2011)",
  "key": {"[1]": {"test": "Agonist activity at EP3 receptor in guinea pig uterus assessed as concentration required to reach uterine motility index number 2000", "type": "functional, Cavia porcellus"}, "[2]": {"test": "Agonist activity at Prostaglandin E2 receptor EP1/EP2 in guinea pig ileum", "type": "functional, tissue-based", "conditions": "Cavia porcellus"}, "[3]": {"biological_target": "Prostaglandin E2 receptor EP4 subtype (Oryctolagus cuniculus, UniProt Q28691)", "sequence (Q28691 whole entry)": "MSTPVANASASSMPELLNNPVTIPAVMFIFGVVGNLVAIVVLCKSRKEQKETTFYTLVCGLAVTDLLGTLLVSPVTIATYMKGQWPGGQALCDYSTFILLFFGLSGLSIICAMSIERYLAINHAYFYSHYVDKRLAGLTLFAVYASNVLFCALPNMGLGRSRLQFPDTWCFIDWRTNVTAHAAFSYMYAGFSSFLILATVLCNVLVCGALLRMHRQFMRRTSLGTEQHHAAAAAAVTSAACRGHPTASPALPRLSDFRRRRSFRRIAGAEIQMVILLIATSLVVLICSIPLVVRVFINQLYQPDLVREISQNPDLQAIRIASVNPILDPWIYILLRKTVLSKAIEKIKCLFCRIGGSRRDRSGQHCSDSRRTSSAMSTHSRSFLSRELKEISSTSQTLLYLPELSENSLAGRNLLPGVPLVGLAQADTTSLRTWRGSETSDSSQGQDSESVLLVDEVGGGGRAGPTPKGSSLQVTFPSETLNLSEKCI", "test": "Agonist activity at rabbit EP4 receptor assessed as relaxation of Kcl-induced tissue contraction by isometric transducer method", "type": "functional"}},
  "data": [
    {"smiles": "O[C@H](/C=C/[C@@H]1[C@H]2c3cccc(CCc4nnn[nH]4)c3O[C@H]2C[C@H]1O)CC1CCCCC1", "values": [
      {"measurement": "EC", "setting": "[1]", "value": 2800, "unit": "nM"},
      {"measurement": "EC50", "setting": "[2]", "value": 3400, "unit": "nM"},
      {"measurement": "EC50", "setting": "[3]", "value": 2.6, "unit": "nM"}
    ]},
    {"smiles": "O=C(O)CCc1cccc2c1O[C@H]1C[C@@H](O)[C@H](/C=C/[C@@H](O)CC3CCCCC3)[C@@H]21", "values": [
      {"measurement": "EC", "setting": "[1]", "value": 540, "unit": "nM"},
      {"measurement": "EC50", "setting": "[2]", "value": 150, "unit": "nM"},
      {"measurement": "EC50", "setting": "[3]", "value": 5.7, "unit": "nM"}
    ]}
  ]
}
